According to US8821888B2, “Xylogone ganodermophthora strain with antifungal activity, and composition including same for preventing plant diseases” (The Director of Chungcheongbuk-Do Agricultural Research and …, priority 2013, dated 2014):

Tested on: Sphaerotheca fusca
Assay: Control effect of sprayed extract on leaves of cucurbitaceous crops infected with Sphaerotheca fusca
Type: in vivo
Settings: 4,000 fold dilution, 7 days after spray
Procedure: The control effects of the extract of the cultured H55 strain prepared in Example 1 were measured. […] The extract was sprayed once at the initial stage of the development of Sphaerotheca fusca, and at 7 days after the spray of the extract, the control effect of the extract for each crop was measured.

With CCCOC/C(=N\c1ccc(Cl)cc1C(F)(F)F)n1ccnc1 [Triflumizole] the Control value (Cucumbers) was 83.3, the Diseased leaf area (Cucumbers) was 10% and the Control value (Melons) was 42.9. It also gave a Diseased leaf area (Melons) of 40%, a Control value (Oriental melons) of 80.0 and a Diseased leaf area (Oriental melons) of 10%. For the same compound, the Control value (Pumpkins) was 62.5 and the Diseased leaf area (Pumpkins) was 30%.
